In the supplement of paper PMC13380429:

Key:
Settings in all cases: 72 h
Vero E6 [1] = assay: drug sensitivity score (DSS) for viability; higher = more toxic; extreme values may be limits of the assay
U2OS [2] = assay: as above
HepG2 [3] = assay: as above
Calu-3 [4] = assay: as above
Caco-2 [5] = assay: as above
Vero E6 [6] = assay: relative viability EC50 (midpoint between 100% and the lowest measured viability); higher = less toxic
U2OS [7] = assay: as above
HepG2 [8] = assay: as above
Calu-3 [9] = assay: as above
Caco-2 [10] = assay: as above
Vero E6 [11] = assay: cell viability relative to DMSO; higher = less toxic
U2OS [12] = assay: as above
HepG2 [13] = assay: as above
Calu-3 [14] = assay: as above
Caco-2 [15] = assay: as above

Row | SMILES | drug sensitivity score (Vero E6 [1]) | drug sensitivity score (U2OS [2]) | drug sensitivity score (HepG2 [3]) | drug sensitivity score (Calu-3 [4]) | drug sensitivity score (Caco-2 [5]) | relative viability EC50 (Vero E6 [6]) | relative viability EC50 (U2OS [7]) | relative viability EC50 (HepG2 [8]) | relative viability EC50 (Calu-3 [9]) | relative viability EC50 (Caco-2 [10]) | cell viability (Vero E6 [11]; 1 nM) | cell viability (Vero E6 [11]; 10 nM) | cell viability (Vero E6 [11]; 100 nM) | cell viability (Vero E6 [11]; 1000 nM) | cell viability (Vero E6 [11]; 10000 nM) | cell viability (U2OS [12]; 1 nM) | cell viability (U2OS [12]; 10 nM) | cell viability (U2OS [12]; 100 nM) | cell viability (U2OS [12]; 1000 nM) | cell viability (U2OS [12]; 10000 nM) | cell viability (HepG2 [13]; 1 nM) | cell viability (HepG2 [13]; 10 nM) | cell viability (HepG2 [13]; 100 nM) | cell viability (HepG2 [13]; 1000 nM) | cell viability (HepG2 [13]; 10000 nM) | cell viability (Calu-3 [14]; 1 nM) | cell viability (Calu-3 [14]; 10 nM) | cell viability (Calu-3 [14]; 100 nM) | cell viability (Calu-3 [14]; 1000 nM) | cell viability (Calu-3 [14]; 10000 nM) | cell viability (Caco-2 [15]; 1 nM) | cell viability (Caco-2 [15]; 10 nM) | cell viability (Caco-2 [15]; 100 nM) | cell viability (Caco-2 [15]; 1000 nM) | cell viability (Caco-2 [15]; 10000 nM)
1 | C[C@]12Cc3c[nH]nc3C[C@@H]1CC[C@@H]1[C@@H]2CC[C@@]2(C)[C@H]1CC[C@]2(C)O [stanozolol] | 0 | 0 | 0 | 0 | 0 | > 10 µM | > 10 µM | > 10 µM | > 10 µM | > 10 µM | 101% | 109% | 102% | 106% | 95% | 98.5% | 101% | 96.9% | 96.3% | 97.3% | 103% | 98.5% | 101% | 104% | 94.1% | 95% | 100% | 103% | 94.1% | 107% | 101% | 95% | 104% | 107% | 91.4%
2 | O[C@@H]1CCCC[C@H]1N1CCC(c2ccccc2)CC1 (racemic) [vesamicol] | 0 | 0 | 0 | 0 | 0 | > 10 µM | > 10 µM | > 10 µM | > 10 µM | > 10 µM | 94% | 95.6% | 93.3% | 101% | 102% | 95.2% | 96.5% | 102% | 101% | 101% | 85.7% | 111% | 102% | 97.1% | 98% | 101% | 106% | 113% | 105% | 97.2% | 95.3% | 83.6% | 99.5% | 92.9% | 95.2%
3 | CCN(c1cc(C#CCN2CCOCC2)cc(C(=O)NCc2c(C)cc(C)[nH]c2=O)c1C)[C@H]1CC[C@H](N(C)CCOC)CC1 | 0 | 0 | 0 | 0 | 0 | > 10 µM | > 10 µM | > 10 µM | > 10 µM | > 10 µM | 107% | 96.9% | 95.9% | 96.8% | 102% | 94.3% | 95.7% | 96.4% | 97.7% | 103% | 92.7% | 122% | 112% | 105% | 91.2% | 97.6% | 95.3% | 108% | 103% | 103% | 92.5% | 103% | 86.4% | 95.3% | 91.6%
4 | CN1[C@@H]2CC[C@H]1C[C@@H](OC(=O)c1cc(Cl)cc(Cl)c1)C2 [bemesetron] | 0 | 0 | 0 | 0 | 1 | > 10 µM | > 10 µM | > 10 µM | > 10 µM | > 10 µM | 98.2% | 103% | 95.8% | 99.5% | 104% | 98.7% | 96.7% | 101% | 98.7% | 99.7% | 98.7% | 101% | 91.3% | 107% | 106% | 86.5% | 87.7% | 94.5% | 94% | 95% | 104% | 97.8% | 103% | 94.9% | 82.2%
5 | CS(=O)(=O)OC[C@H](O)[C@@H](O)COS(C)(=O)=O [treosulfan] | 0 | 0 | 0 | 0 | 0 | > 10 µM | > 10 µM | > 10 µM | > 10 µM | > 10 µM | 92.3% | 100% | 92.5% | 98.2% | 106% | 104% | 94.7% | 103% | 94% | 99.2% | 93.1% | 93.6% | 94.6% | 108% | 108% | 105% | 104% | 102% | 98.8% | 111% | 95.6% | 96.4% | 102% | 90.9% | 99.3%
6 | COc1ccc(CC2NCCc3cc(OC)c(OC)cc32)cc1OC (stereo not given) [tetrahydropapaverine] | 0 | 0 | 0 | 0 | 0 | > 10 µM | > 10 µM | > 10 µM | > 10 µM | > 10 µM | 94.3% | 99.8% | 95.3% | 98.6% | 104% | 99.5% | 93.2% | 103% | 90.9% | 96.9% | 99.1% | 99.9% | 91.5% | 98.6% | 103% | 95.9% | 86.9% | 99.7% | 83.3% | 98.7% | 99.8% | 99% | 99.5% | 102% | 94.4%
7 | COC(=O)[C@H](Cc1cccc(C(=N)N)c1)[C@@H](C)NC(=O)c1ccc(-c2cc[n+]([O-])cc2)cc1 [otamixaban] | 0 | 0 | 0 | 0 | 0 | > 10 µM | > 10 µM | > 10 µM | > 10 µM | > 10 µM | 103% | 101% | 94.1% | 97.9% | 96.3% | 99.1% | 95.3% | 98.3% | 97.8% | 104% | 89.3% | 103% | 98.6% | 102% | 96.7% | 88.9% | 92% | 90.5% | 94.4% | 105% | 104% | 104% | 101% | 99.2% | 104%
8 | c1ccc2c(c1)CCCc1cc(NCCN3CCOCC3)nnc1-2 | 0 | 0 | 0 | 0 | 0 | > 10 µM | > 10 µM | > 10 µM | > 10 µM | > 10 µM | 104% | 98.9% | 108% | 104% | 99% | 97.1% | 99.7% | 92.9% | 98.1% | 96.6% | 101% | 101% | 94.4% | 87.7% | 101% | 99.7% | 105% | 96.1% | 113% | 94.9% | 97.7% | 99.2% | 96.1% | 105% | 87.7%
9 | CN1C(=O)c2c(nn(Cc3ccc(-c4cccc(F)n4)cc3)c2Nc2ccccc2)N2C1=N[C@@H]1CCC[C@@H]12 [ITI214] | 0 | 0 | 0.5 | 0 | 0 | > 10 µM | > 10 µM | > 10 µM | > 10 µM | > 10 µM | 110% | 113% | 99.6% | 104% | 97.2% | 106% | 102% | 102% | 96.7% | 89.3% | 105% | 96.7% | 97.9% | 102% | 79.7% | 105% | 87% | 100% | 101% | 92.8% | 87.3% | 104% | 97.4% | 94.8% | 117%
10 | CC(=O)SC[C@@H](Cc1ccccc1)C(=O)NCC(=O)OCc1ccccc1 (racemic) [racecadotril] | 0 | 0 | 0.6 | 0 | 0 | > 10 µM | > 10 µM | > 10 µM | > 10 µM | > 10 µM | 105% | 99.3% | 94.1% | 101% | 109% | 101% | 96.8% | 97.4% | 98.9% | 102% | 105% | 101% | 88.8% | 89.7% | 102% | 92.8% | 96.7% | 95.5% | 105% | 108% | 94.4% | 95.7% | 99.7% | 92.6% | 122%
11 | C[N+]1(C)CCCC(OC(=O)C(O)(c2ccccc2)c2ccccc2)C1 (stereo not given) [mepenzolate] | 0 | 0 | 0 | 0 | 0 | > 10 µM | > 10 µM | > 10 µM | > 10 µM | > 10 µM | 94.9% | 105% | 97.5% | 99.6% | 99.8% | 99.7% | 101% | 96.6% | 101% | 96.9% | 107% | 98.1% | 104% | 91.9% | 94.3% | 105% | 103% | 96.1% | 110% | 94.5% | 91.3% | 87.1% | 96.6% | 101% | 101%
